Laboratory results published in patent publication US20240287065A1, “COMPOUND AS CDK KINASE INHIBITOR AND USE THEREOF” (TYK MEDICINES (ZHENGZHOU) , INC., priority 2021, published 2024).
pIC50: −log10 of the molar value.

Assays:
HCC1806 cells = test: Cell proliferation inhibition assay (MTT, 7 days); assay type: cell-based; conditions: Homo sapiens, HCC1806, 168 h, HCC1086 [sic], 7 days incubation
Protocol: (§1) MCF7, T47D, OVCAR3 and HCC1806 cells were inoculated in 96-well plates at 3000, 3000, 2500, and 2000 cells/well, respectively, and cultured overnight at 37° C., 5% C02 incubator.
(§2) 1. […] Then 2.5 μl of the stock solution was dissolved in 497.5 μl of DMSO-free medium, and then a 3-fold serial gradient dilution was performed with 0.1% DMSO medium for a total of 9 concentrations, and the concentrations of the compounds after dilution were as follows: • 10000 nM, 3333.33 nM, 1111.11 nM, 370.34 nM, 123.45 nM, 41.15 nM, 13.72 nM, 4.57 nM, and 1.52 nM. • b) After fully mixing, 20 μL of compound solutions were added into cell culture plates containing 80 μL of cells respectively, with 4 replicate wells for each concentration. • c) The cells were transferred to an incubator and incubated for 7 days, and exchanged with fresh culture medium containing the same concentration of compounds when incubated to day 4. 2. MTT assay • a) The cell culture plate was taken out and 10 μL of 5 mg/ml MTT was added to the hood. • b) The cell culture plate was put back into the incubator and continued to incubate for 3 hours. • c) The cell culture plate was taken out to remove the culture medium, and 100 μL of isopropanol (0.4 mMHCl, 0.4% NP40) was added to the plate, and the plate was shaken on a shaker at room temperature for 30 minutes and read at 570 nm. 3. Data analysis
(§3) The survival rate (% Cell Survival) was calculated using the following equation:
(§4) % Cell Survival=100%×(OD_Sample−OD_LCave)/(OD_HC−OD_LCave) • OD_HC: 0.1‰ cell readings of DMSO control • OD_Sample: cell readings of compound addition • OD_LC: readings of blank medium • Analyed by Prizm: Dose-response-Inhibition Log(inhibitor) vs response (three parameters for the best fit)
(§5) IC50 (nM) values were calculated by concentration-response curve fitting.

MCF7 cells = test: Cell proliferation inhibition assay (MTT, 7 days); assay type: cell-based; conditions: Homo sapiens, 168 h, 7 days incubation
Protocol: as §1, §2, §3, §4, §5

OVCAR3 cells = test: Cell proliferation inhibition assay (MTT, 7 days); assay type: cell-based; conditions: Homo sapiens, OVCAR-3, 168 h, 7 days incubation
Protocol: as §1, §2, §3, §4, §5

T47D cells = test: Cell proliferation inhibition assay (MTT, 7 days); assay type: cell-based; conditions: Homo sapiens, 168 h, 7 days incubation
Protocol: as §1, §2, §3, §4, §5

CDK2/CycE1 = CDK2/CycE1 (Homo sapiens, UniProt P24941); test: Enzyme activity test; assay type: biochemical;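 further: values come from the source column headed CDK2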
Protocol: (§6) • 1. The test compounds and pabocinib were configured into a […] solution of DMSO; • 2. 20 nL of stock solution was transferred to a 384-well plate using Echo550. DMSO was used as a blank control.
(§7) • 1. according to the following table to prepare 1.3X enzyme solution containing enzyme, substrate and cofactor; • 2. 15 μL of 1.3X enzyme solution was added to each well and the mixture was incubated for 30 min at room temperature; • 3. 5 μL of ATP solution was added to initiate the reaction. The final volume of each well was 20 μL; • 4. After incubation for 150 min at room temperature, 75 μL of termination buffer solution was added to terminate the experiment; • 5. The samples were analyzed using EZ reader.
(§8) The % inhibition was calculated using the following equation
(§9) The one treated with DMSO is the positive control (PC)
(§10) The one without enzyme is the negative control (NC)
(§11) % Inhibition=100-100*((CRPC−CRsample)/(CRPC−CRNC))

CDK4/CycD3 = CDK4/CycD3 (Homo sapiens, UniProt P11802); test: Enzyme activity test; assay type: biochemical;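 further: values come from the source column headed CDK4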
Chain of CDK4/CycD3 (P11802 whole entry, species assumed): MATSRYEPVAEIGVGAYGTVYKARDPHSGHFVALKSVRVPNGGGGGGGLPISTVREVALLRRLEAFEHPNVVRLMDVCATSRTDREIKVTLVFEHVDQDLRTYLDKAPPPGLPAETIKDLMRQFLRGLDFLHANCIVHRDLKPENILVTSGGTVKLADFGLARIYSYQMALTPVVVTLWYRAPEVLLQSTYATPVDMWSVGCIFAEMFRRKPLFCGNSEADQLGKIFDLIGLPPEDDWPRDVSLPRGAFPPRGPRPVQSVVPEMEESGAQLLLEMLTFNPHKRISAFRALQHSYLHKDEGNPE
Chain of CDK4/CycD3 (P30281 whole entry partner, species assumed): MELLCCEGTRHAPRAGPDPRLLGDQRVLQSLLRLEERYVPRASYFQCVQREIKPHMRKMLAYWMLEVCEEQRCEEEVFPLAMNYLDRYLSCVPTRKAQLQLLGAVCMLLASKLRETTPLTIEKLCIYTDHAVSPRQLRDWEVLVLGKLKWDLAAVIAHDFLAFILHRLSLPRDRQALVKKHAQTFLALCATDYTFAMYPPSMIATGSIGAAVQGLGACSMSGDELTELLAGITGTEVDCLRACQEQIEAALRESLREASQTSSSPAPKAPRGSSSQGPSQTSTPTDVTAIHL
Protocol: as §6, §7, §8, §9, §10, §11

CDK6/CycD1 = CDK6/CycD1 (Homo sapiens, UniProt Q00534); test: Enzyme activity test; assay type: biochemical;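 further: values come from the source column headed CDK6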
Chain of CDK6/CycD1 (Q00534 whole entry, species assumed): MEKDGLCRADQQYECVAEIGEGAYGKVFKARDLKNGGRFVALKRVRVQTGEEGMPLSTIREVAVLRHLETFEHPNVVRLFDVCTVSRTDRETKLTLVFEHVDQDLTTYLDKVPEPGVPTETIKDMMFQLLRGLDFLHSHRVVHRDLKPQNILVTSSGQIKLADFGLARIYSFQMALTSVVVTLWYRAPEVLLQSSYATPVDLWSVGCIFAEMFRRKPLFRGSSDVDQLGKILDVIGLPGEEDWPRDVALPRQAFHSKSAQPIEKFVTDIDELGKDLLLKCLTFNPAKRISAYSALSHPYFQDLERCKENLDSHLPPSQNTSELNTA
Chain of CDK6/CycD1 (P24385 whole entry partner, species assumed): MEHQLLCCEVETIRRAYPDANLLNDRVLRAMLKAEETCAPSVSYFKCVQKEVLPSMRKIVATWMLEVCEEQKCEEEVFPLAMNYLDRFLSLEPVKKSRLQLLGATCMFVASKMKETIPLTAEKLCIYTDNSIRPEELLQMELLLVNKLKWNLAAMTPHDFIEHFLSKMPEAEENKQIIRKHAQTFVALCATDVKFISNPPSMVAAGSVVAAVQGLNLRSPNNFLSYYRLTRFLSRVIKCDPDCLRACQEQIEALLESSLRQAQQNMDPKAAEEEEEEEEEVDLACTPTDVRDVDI
Protocol: as §6, §7, §8, §9, §10, §11

Row | Structure (SMILES) | IC50 (HCC1806 cells) [nM] | IC50 (MCF7 cells) [nM] | IC50 (OVCAR3 cells) [nM] | IC50 (T47D cells) [nM] | pIC50 (CDK2/CycE1) | pIC50 (CDK4/CycD3) | pIC50 (CDK6/CycD1)
1 | CCS(=O)(=O)N1CCC(Nc2ncc3cc(OC(F)F)c(=O)n([C@@H]4CCC[C@@]4(C)O)c3n2)CC1 [Example 44] | 50 to 5200 | ≤ 50 | ≤ 50 | ≤ 50 | > 8.00 | > 8.00 | –
2 | CN1CCN(c2ccc(Nc3ncc4cc(OC(F)F)c(=O)n([C@@H]5CCC[C@@]5(C)O)c4n3)cc2)CC1 [Example 63] | 50 to 5200 | ≤ 50 | ≤ 50 | 50 to 5200 | – | – | –
3 | C[C@@]1(O)CCC[C@H]1n1c(=O)c(OC(F)F)cc2cnc(NC3CCN(C(=O)C(F)(F)F)CC3)nc21 [Example 57] | 200 to 51000 | – | 200 to 51000 | 200 to 51000 | – | – | –
4 | C[C@@]1(O)CCC[C@H]1n1c(=O)c(OC(F)F)cc2cnc(N[C@@H]3CCOC[C@H]3O)nc21 [Example 45] | – | – | – | – | 7.00 to 8.00 | 7.00 to 8.00 | –
5 | CCn1cc(S(=O)(=O)N2CCC(Nc3ncc4cc(OC(F)F)c(=O)n([C@@H]5CCC[C@@]5(C)O)c4n3)CC2)cn1 [Example 39] | ≤ 50 | ≤ 50 | – | – | – | – | –
6 | C[C@@]1(O)CCC[C@H]1n1c(=O)c(OC(F)F)cc2cnc(NC3CCN(S(=O)(=O)C4CCC(O)CC4)CC3)nc21 (some centres unmarked) [Example 56] | 200 to 51000 | 50 to 5200 | 200 to 51000 | 50 to 5200 | – | – | –
7 | C[C@@]1(O)CCC[C@H]1n1c(=O)c(OC(F)F)cc2cnc(NC3CCN(S(=O)(=O)CCC(F)(F)F)CC3)nc21 [Example 40] | 50 to 5200 | – | ≤ 50 | 50 to 5200 | > 8.00 | > 8.00 | –
8 | C[C@@]1(O)CCC[C@H]1n1c(=O)c(OC(F)F)cc2cnc(NC3CCN(S(=O)(=O)C4CCC4)CC3)nc21 [Example 42] | 50 to 5200 | ≤ 50 | ≤ 50 | ≤ 50 | > 8.00 | > 8.00 | –
9 | CN([C@H]1CC[C@H](Nc2ncc3cc(OC(F)F)c(=O)n([C@@H]4CCC[C@@]4(C)O)c3n2)CC1)S(C)(=O)=O [Example 69] | – | – | – | – | > 8.00 | 7.00 to 8.00 | 7.00 to 8.00
10 | COc1ncccc1S(=O)(=O)N1CCC(Nc2ncc3cc(OC(F)F)c(=O)n([C@@H]4CCC[C@@]4(C)O)c3n2)CC1 [Example 37] | ≤ 50 | – | ≤ 50 | ≤ 50 | > 8.00 | > 8.00 | –
11 | C[C@@]1(O)CCC[C@H]1n1c(=O)c(OC(F)F)cc2cnc(NC3CCN(S(=O)(=O)C4CCCC4)CC3)nc21 [Example 48] | 50 to 5200 | 50 to 5200 | ≤ 50 | 50 to 5200 | > 8.00 | > 8.00 | –
12 | COc1ccc(S(=O)(=O)N2CCC(Nc3ncc4cc(OC(F)F)c(=O)n([C@@H]5CCC[C@@]5(C)O)c4n3)CC2)cn1 [Example 36] | ≤ 50 | ≤ 50 | ≤ 50 | ≤ 50 | > 8.00 | > 8.00 | –
13 | C[C@@]1(O)CCC[C@H]1n1c(=O)c(OC(F)F)cc2cnc(NC3CCN(S(=O)(=O)c4cc(F)c(F)cc4F)CC3)nc21 [Example 21] | 200 to 51000 | 200 to 51000 | 50 to 5200 | 50 to 5200 | – | – | –
14 | C[C@@]1(O)CCC[C@H]1n1c(=O)c(OC(F)F)cc2cnc(NC3CCN(S(=O)(=O)CCC#N)CC3)nc21 [Example 33] | 200 to 51000 | 50 to 5200 | 50 to 5200 | 50 to 5200 | > 8.00 | – | –
15 | CCOc1ccc(S(=O)(=O)N2CCC(Nc3ncc4cc(OC(F)F)c(=O)n([C@@H]5CCC[C@@]5(C)O)c4n3)CC2)cc1 [Example 34] | ≤ 50 | ≤ 50 | ≤ 50 | ≤ 50 | – | – | –
